Data taken from patent US9738634B2, “Heterocyclic amide compound and herbicide” (SYNGENTA PARTICIPATIONS AG, priority 2013, dated 2017).

Tests used:
Type in all cases: in vivo
barnyard grass [1] = test: Test Example 3: weedkilling efficacy through soil treatment; F: barnyard grass; details: soil treatment, treatment dosage 320 g/ha
Method in brief: (§1)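 Crop and weed responses were judged three weeks after a uniform surface spray of the water-diluted emulsion at the given g/ha rate. Seeds sat beneath about 1.5 cm of sterilized diluvial soil, and boxes stood in a greenhouse at 25 to 30° C.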

common wind-grass = test: Test Example 3: weedkilling efficacy through soil treatment; J: common wind-grass; details: soil treatment, treatment dosage 320 g/ha
Method in brief: as §1

wheat = test: Test Example 3: soil treatment, effect on crop; e: wheat; details: soil treatment, treatment dosage 320 g/ha
Method in brief: as §1

oval-leafed pondweed [2] = test: Test Example 1: weedkilling efficacy, preemergent weed treatment in the submerged state; C: oval-leafed pondweed; details: treatment dosage 320 g/ha
Method in brief: (§2)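 Pre-emergence application onto floodwater (4 cm, alluvial soil) on the day of sowing, dose expressed as g/ha from diluted emulsion formulation. Weeds sown with 2.5-leaf transplanted rice as crop; plants held at 25–30 °C in greenhouse and scored against assessment criteria after 3 weeks.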

barnyard grass [3] = test: Test Example 1: weedkilling efficacy, preemergent weed treatment in the submerged state; A: barnyard grass; details: treatment dosage 320 g/ha
Method in brief: as §2

transplanted rice = test: Test Example 1: preemergent weed treatment in the submerged state, effect on crop; a: transplanted rice; details: treatment dosage 320 g/ha
Method in brief: as §2

crabgrass = test: Test Example 3: weedkilling efficacy through soil treatment; D: crabgrass; details: soil treatment, treatment dosage 320 g/ha
Method in brief: as §1

fig-leafed goosefoot = test: Test Example 3: weedkilling efficacy through soil treatment; M: fig-leafed goosefoot; details: soil treatment, treatment dosage 320 g/ha
Method in brief: as §1

barnyard grass [4] = test: Test Example 2: weedkilling efficacy, growth period weed treatment in the submerged state; A: barnyard grass; details: treatment dosage 320 g/ha
Method in brief: (§3)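 Weeds treated at the 1-2 leaf stage by application of diluted emulsion onto floodwater (4 cm depth, alluvial soil) at specified g/ha. Grown in greenhouse at 25 to 30° C; herbicidal effect rated three weeks after treatment.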

soybean = test: Test Example 3: soil treatment, effect on crop; d: soybean; details: soil treatment, treatment dosage 320 g/ha
Method in brief: as §1

Italian ryegrass = test: Test Example 3: weedkilling efficacy through soil treatment; I: Italian ryegrass; details: soil treatment, treatment dosage 320 g/ha
Method in brief: as §1

oval-leafed pondweed [5] = test: Test Example 2: weedkilling efficacy, growth period weed treatment in the submerged state; C: oval-leafed pondweed; details: treatment dosage 320 g/ha
Method in brief: as §3

directly sown rice = test: Test Example 3: soil treatment, effect on crop; b: directly sown rice; details: soil treatment, treatment dosage 320 g/ha
Method in brief: as §1

corn = test: Test Example 3: soil treatment, effect on crop; c: corn; details: soil treatment, treatment dosage 320 g/ha
Method in brief: as §1

bulrush [6] = test: Test Example 2: weedkilling efficacy, growth period weed treatment in the submerged state; B: bulrush; details: treatment dosage 320 g/ha
Method in brief: as §3

Indian mallow = test: Test Example 3: weedkilling efficacy through soil treatment; K: Indian mallow; details: soil treatment, treatment dosage 320 g/ha
Method in brief: as §1

bulrush [7] = test: Test Example 1: weedkilling efficacy, preemergent weed treatment in the submerged state; B: bulrush; details: treatment dosage 320 g/ha
Method in brief: as §2

green foxtail = test: Test Example 3: weedkilling efficacy through soil treatment; E: green foxtail; details: soil treatment, treatment dosage 320 g/ha
Method in brief: as §1

black-grass = test: Test Example 3: weedkilling efficacy through soil treatment; H: black-grass; details: soil treatment, treatment dosage 320 g/ha
Method in brief: as §1

wild oat = test: Test Example 3: weedkilling efficacy through soil treatment; G: wild oat; details: soil treatment, treatment dosage 320 g/ha
Method in brief: as §1

rapeseed = test: Test Example 3: soil treatment, effect on crop; g: rapeseed; details: soil treatment, treatment dosage 320 g/ha
Method in brief: as §1

beet = test: Test Example 3: soil treatment, effect on crop; f: beet; details: soil treatment, treatment dosage 320 g/ha
Method in brief: as §1

redroot pigweed = test: Test Example 3: weedkilling efficacy through soil treatment; L: redroot pigweed; details: soil treatment, treatment dosage 320 g/ha
Method in brief: as §1

birds-eye speedwell = test: Test Example 3: weedkilling efficacy through soil treatment; p: birds-eye speedwell; details: soil treatment, treatment dosage 320 g/ha
Method in brief: as §1

chickweed = test: Test Example 3: weedkilling efficacy through soil treatment; N: chickweed; details: soil treatment, treatment dosage 320 g/ha
Method in brief: as §1

catchweed = test: Test Example 3: weedkilling efficacy through soil treatment; O: catchweed; details: soil treatment, treatment dosage 320 g/ha
Method in brief: as §1

Compound | F: barnyard grass, weedkilling efficacy grade (barnyard grass [1]) | J: common wind-grass, weedkilling efficacy grade (common wind-grass) | e: wheat, effect on crop grade (wheat) | C: oval-leafed pondweed, weed kill grade (oval-leafed pondweed [2]) | A: barnyard grass, weed kill grade (barnyard grass [3]) | a: transplanted rice, effect on crop grade (transplanted rice) | D: crabgrass, weedkilling efficacy grade (crabgrass) | M: fig-leafed goosefoot, weedkilling efficacy grade (fig-leafed goosefoot) | A (barnyard grass) weedkilling efficacy grade (barnyard grass [4]) | d: soybean, effect on crop grade (soybean) | I: Italian ryegrass, weedkilling efficacy grade (Italian ryegrass) | C (oval-leafed pondweed) weedkilling efficacy grade (oval-leafed pondweed [5]) | b: directly sown rice, effect on crop grade (directly sown rice) | c: corn, effect on crop grade (corn) | B (bulrush) weedkilling efficacy grade (bulrush [6]) | K: Indian mallow, weedkilling efficacy grade (Indian mallow) | B: bulrush, weed kill grade (bulrush [7]) | E: green foxtail, weedkilling efficacy grade (green foxtail) | H: black-grass, weedkilling efficacy grade (black-grass) | G: wild oat, weedkilling efficacy grade (wild oat) | further results
Cc1cc(Cl)nc(NC(=O)C(C)(C)N2COCN(c3ccccc3)C2=O)c1 [A-2-26] | 5 (weed kill ratio 90% or more, (practically complete withering)) | 5 (weed kill ratio 90% or more, (practically complete withering)) | 3 (weed kill ratio 40% or more, less than 70%) | 5 (weed kill ratio 90% or more, (practically complete withering)) | 5 (weed kill ratio 90% or more, (practically complete withering)) | 4 (weed kill ratio 70% or more, less than 90%) | 5 (weed kill ratio 90% or more, (practically complete withering)) | 4 (weed kill ratio 70% or more, less than 90%) | 5 (weed kill ratio 90% or more, (practically complete withering)) | 2 (weed kill ratio 20% or more, less than 40%) | 5 (weed kill ratio 90% or more, (practically complete withering)) | 5 (weed kill ratio 90% or more, (practically complete withering)) | 5 (weed kill ratio 90% or more, (practically complete withering)) | 0 (weed kill ratio 5% or less (practically no effect)) | 5 (weed kill ratio 90% or more, (practically complete withering)) | 0 (weed kill ratio 5% or less (practically no effect)) | 5 (weed kill ratio 90% or more, (practically complete withering)) | 5 (weed kill ratio 90% or more, (practically complete withering)) | 5 (weed kill ratio 90% or more, (practically complete withering)) | 5 (weed kill ratio 90% or more, (practically complete withering)) | g: rapeseed, effect on crop grade (rapeseed): 4 (weed kill ratio 70% or more, less than 90%); f: beet, effect on crop grade (beet): 3 (weed kill ratio 40% or more, less than 70%); L: redroot pigweed, weedkilling efficacy grade (redroot pigweed): 2 (weed kill ratio 20% or more, less than 40%); P: birds-eye speedwell, weedkilling efficacy grade (birds-eye speedwell): 5 (weed kill ratio 90% or more, (practically complete withering)); N: chickweed, weedkilling efficacy grade (chickweed): 3 (weed kill ratio 40% or more, less than 70%)
CC(C)(C(=O)Nc1cc(OC(F)F)cc(Cl)n1)N1COCN(c2ccccc2)C1=O [A-2-34] | 5 (weed kill ratio 90% or more, (practically complete withering)) | 5 (weed kill ratio 90% or more, (practically complete withering)) | 0 (weed kill ratio 5% or less (practically no effect)) | 5 (weed kill ratio 90% or more, (practically complete withering)) | 5 (weed kill ratio 90% or more, (practically complete withering)) | 3 (weed kill ratio 40% or more, less than 70%) | 5 (weed kill ratio 90% or more, (practically complete withering)) | 4 (weed kill ratio 70% or more, less than 90%) | 5 (weed kill ratio 90% or more, (practically complete withering)) | 0 (weed kill ratio 5% or less (practically no effect)) | 5 (weed kill ratio 90% or more, (practically complete withering)) | 5 (weed kill ratio 90% or more, (practically complete withering)) | 4 (weed kill ratio 70% or more, less than 90%) | 0 (weed kill ratio 5% or less (practically no effect)) | 5 (weed kill ratio 90% or more, (practically complete withering)) | 0 (weed kill ratio 5% or less (practically no effect)) | 5 (weed kill ratio 90% or more, (practically complete withering)) | 5 (weed kill ratio 90% or more, (practically complete withering)) | 5 (weed kill ratio 90% or more, (practically complete withering)) | 5 (weed kill ratio 90% or more, (practically complete withering)) | g: rapeseed, effect on crop grade (rapeseed): 1 (weed kill ratio 5% or more, less than 20%); f: beet, effect on crop grade (beet): 4 (weed kill ratio 70% or more, less than 90%); L: redroot pigweed, weedkilling efficacy grade (redroot pigweed): 0 (weed kill ratio 5% or less (practically no effect)); P: birds-eye speedwell, weedkilling efficacy grade (birds-eye speedwell): 4 (weed kill ratio 70% or more, less than 90%); N: chickweed, weedkilling efficacy grade (chickweed): 4 (weed kill ratio 70% or more, less than 90%)
CC(C)(C(=O)Nc1cc(Cl)cc(Oc2ccccc2)n1)N1COCN(c2ccccc2)C1=O [A-2-35] | 3 (weed kill ratio 40% or more, less than 70%) | 4 (weed kill ratio 70% or more, less than 90%) | 0 (weed kill ratio 5% or less (practically no effect)) | 5 (weed kill ratio 90% or more, (practically complete withering)) | 5 (weed kill ratio 90% or more, (practically complete withering)) | 1 (weed kill ratio 5% or more, less than 20%) | 4 (weed kill ratio 70% or more, less than 90%) | 0 (weed kill ratio 5% or less (practically no effect)) | 4 (weed kill ratio 70% or more, less than 90%) | 0 (weed kill ratio 5% or less (practically no effect)) | 3 (weed kill ratio 40% or more, less than 70%) | 4 (weed kill ratio 70% or more, less than 90%) | 0 (weed kill ratio 5% or less (practically no effect)) | 0 (weed kill ratio 5% or less (practically no effect)) | 4 (weed kill ratio 70% or more, less than 90%) | 0 (weed kill ratio 5% or less (practically no effect)) | 5 (weed kill ratio 90% or more, (practically complete withering)) | 3 (weed kill ratio 40% or more, less than 70%) | 3 (weed kill ratio 40% or more, less than 70%) | 0 (weed kill ratio 5% or less (practically no effect)) | O: catchweed, weedkilling efficacy grade (catchweed): 0 (weed kill ratio 5% or less (practically no effect)); g: rapeseed, effect on crop grade (rapeseed): 1 (weed kill ratio 5% or more, less than 20%); f: beet, effect on crop grade (beet): 0 (weed kill ratio 5% or less (practically no effect)); L: redroot pigweed, weedkilling efficacy grade (redroot pigweed): 0 (weed kill ratio 5% or less (practically no effect)); N: chickweed, weedkilling efficacy grade (chickweed): 0 (weed kill ratio 5% or less (practically no effect))
